Measurements as given in patent US11020457B2, “Compositions and methods for protecting the kidney from ischemia reperfusion injury” (University of Virginia Patent Foundation, priority 2013, dated 2021).
“Also recorded” adds a separate entry of the source.

Assays:
Type in all cases: in vivo
C57BL/6 mice [1] = assay: Renal IRI in WT mice: 4-HNE immunohistochemistry (oxidative stress); settings: hepcidin-treated vs untreated IRI mice, FIG. 4a
Procedure: (§1) All experiments were performed in accordance with the National Institutes of Health and Institutional Animal Care and Use Guidelines. The Animal Care and Use Committee of the University of Virginia approved all procedures and protocols. C57BL/6 mice from the Jackson Laboratory and hepcidin knockout mice (HAMP−/−), a kind gift from Dr Cindy Roy (John Hopkins University) were used in this study. All experiments were performed on 8-10 weeks old male mice. Kidney ischemia-reperfusion surgery was performed as previously reported (44). The core temperature of the mice was maintained between 34° C. and 36° C. using a heating pad. After anesthetizing the mice (ketamine, 12 mg/ml; atropine, 0.48 mg/ml; xylazine, 24 mg/ml; […] mixture administered per 20 g body weight), bilateral flank incisions were made, both renal pedicles were exposed, and cross-clamped for 26 minutes (severe I/R injury) or 24 minutes (mild I/R injury). After the determined ischemia, clamps were removed, and kidneys were allowed to reperfuse for 24 hours. Ambient postoperative air temperature was maintained between 30° C. and 32° C. until mice had fully recovered. […]
Kidney sections were embedded in paraffin, 3 μm sectioned, and stained for 4 Hydroxynonenal (4-HNE) using standard protocols. […] Sections were washed 3 times in NaPO4 buffer, and then incubated in ABC ready-to-use reagent (Vector Labs) for 30 minutes. […]

C57BL/6 mice [2] = assay: Renal IRI in WT mice: flow cytometry of kidney immune cells; settings: hepcidin vs untreated IRI, p<0.005
Procedure: as §1, with “hours.” for “hours. Ambient postoperative air temperature was maintained between 30° C. and 32° C. until mice had fully recovered.”
Single-cell suspensions from the kidney were prepared using standard methods. […] Flow cytometry data were acquired using BD FACSCalibur (BD Biosciences, San Jose, Calif.) with Cytek eight-color flow cytometry upgrade (Cytek Development, Fremont, Calif.) and analyzed with FlowJo software 9.0 (Tree Star Inc., Ashland, Oreg.). […]

C57BL/6 mice [3] = assay: Renal IRI in WT mice: Western blot of kidney ferroportin and H-Ferritin; settings: for kidney ferroportin expression (membrane fraction): pretreatment with hepcidin, p<0.01, FIG. 5a-b
Procedure: as §1, with “recovered. Sham-operated animals underwent bilateral flank incisions without clamping of renal pedicles. Twenty-four hours later, mice were euthanized, and tissues were harvested.” for “recovered.”
(§2) Snap frozen tissue sections were homogenized in Tris-Triton tissue lysis buffer containing complete protease inhibitor cocktail using a Dounce Homogenizer. […] H-Ferritin was measured in the whole kidney and spleen lysates. […] The primary antibodies were detected with Donkey anti-goat Alexa 800 and goat anti-rabbit Alexa 800 antibodies (LiCor Bioscience). Mouse monoclonal GAPDH and β-Actin (Abcam) were used as the loading controls and detected using Donkey anti Mouse Alexa 680 antibody (LiCor Bioscience). Quantitation of data was performed using densitometry software (Licor Bioscience).

[4] = system: hepcidin knockout mice (HAMP−/−); assay: Mild renal IRI in HAMP-/- mice: serum iron and tissue non-heme iron; settings: for serum iron / liver non-heme iron content: HAMP-/- hepcidin-IRI vs untreated IRI p<0.005, vs sham p<0.0005; for serum iron: FIG. 6e; for liver non-heme iron content: FIG. 6f
Procedure: (§3) All experiments were performed in accordance with the National Institutes of Health and Institutional Animal Care and Use Guidelines. The Animal Care and Use Committee of the University of Virginia approved all procedures and protocols. C57BL/6 mice from the Jackson Laboratory and hepcidin knockout mice (HAMP−/−), a kind gift from Dr Cindy Roy (John Hopkins University) were used in this study. All experiments were performed on 8-10 weeks old male mice. Kidney ischemia-reperfusion surgery was performed as previously reported (44). The core temperature of the mice was maintained between 34° C. and 36° C. using a heating pad. After anesthetizing the mice (ketamine, 12 mg/ml; atropine, 0.48 mg/ml; xylazine, 24 mg/ml; […] mixture administered per 20 g body weight), bilateral flank incisions were made, both renal pedicles were exposed, and cross-clamped for 26 minutes (severe I/R injury) or 24 minutes (mild I/R injury). After the determined ischemia, clamps were removed, and kidneys were allowed to reperfuse for 24 hours. Ambient postoperative air temperature was maintained between 30° C. and 32° C. until mice had fully recovered. Sham-operated animals underwent bilateral flank incisions without clamping of renal pedicles. Twenty-four hours later, mice were euthanized, and tissues were harvested.
(§4) Serum iron (Abcam), hepcidin (Intrinsic Lifescience) and IL-6 levels (eBioscience) were measured using commercial ELISA kits, as per manufacturers instructions.
Non-heme iron content in tissue was measured using the method described in published literature with slight modifications (60). Briefly, tissues were accurately weighed, finely cut and placed for 20 hours at 65° C. in a solution of 3M HCl/0.61 M trichloroacetic acid. After cooling to room temperature, the acid extract was spun at 12,000 rpm to collect the supernatant. 0.1 mL of the supernatant was incubated with chromogen solution (1.86 mM bathophenanthroline sulfonate/143 mM thioglycollic acid) for 20 minutes, and OD was measured at 535 nm. A standard curve was generated using an iron standard solution (Ricca Iron AA standard) against water as the blank. Non-heme iron content (μg/g) was calculated using the equation described (60).
We measured the serum iron and non-heme iron content in the kidney, spleen and liver of sham, untreated and hepcidin injected HAMP^−/− mice after IRI.

C57BL/6 mice [5] = assay: Renal IRI in WT mice: splenic ferroportin (immunofluorescence) and splenic H-Ferritin (Western blot); settings: for splenic H-Ferritin: WT hepcidin IRI vs IRI and vs Sham, p<0.05, FIG. 9b
Procedure: as §3, with “harvested. […]” for “harvested.”
as §2

[6] = system: hepcidin knockout mice (HAMP−/−); assay: Renal IRI in HAMP-/- mice: serum IL-6 by ELISA; settings: HAMP-/- IRI Vs HAMP-/- Hepcidin-IRI, p<0.05; FIG. 10b
Procedure: as §1, with “recovered. Sham-operated animals underwent bilateral flank incisions without clamping of renal pedicles.” for “recovered.”
as §4

Substance: Mouse hepcidin 25 (DTNFPICIFCCKCCNNSQCGICCKT; listed as Mus musculus)
- kidney 4-HNE immunoreactivity (oxidative stress) (C57BL/6 mice [1]): reduced the reactivity to 4 HNE; also recorded: markedly reduced
- kidney 4-HNE immunoreactivity (oxidative stress) (C57BL/6 mice [1]; listed as hepcidin): far less 4-HNE immunoreactivity
- frequency of kidney CD45+ cells (C57BL/6 mice [2]; FIG. 4b-c): reduced renal inflammatory cell infiltration by almost half
- kidney neutrophils (C57BL/6 mice [2]; FIG. 4c): significantly reduced IRI-induced renal neutrophil inflammation
- kidney H-Ferritin expression (C57BL/6 mice [3]; hepcidin-IRI Vs IRI p<0.005, Vs Sham p<0.05, FIG. 5c-d): significantly higher H-Ferritin expression compared to both untreated IRI mice and sham mice; also recorded: prevented
- kidney ferroportin expression (membrane fraction) (C57BL/6 mice [3]): prevented the IRI induced upregulation
- kidney ferroportin expression (membrane fraction) (C57BL/6 mice [3]; listed as hepcidin): levels comparable to sham mice
- serum iron [4]: significantly reduced serum iron
- serum iron ([4]; listed as hepcidin): significantly lowered serum iron
- liver non-heme iron content [4]: significantly higher non-heme iron
- liver non-heme iron content ([4]; listed as hepcidin): significantly higher than the untreated
- splenic iron content by Prussian blue staining ([4]; hepcidin-treated HAMP-/- mice): qualitative increases in splenic iron content
- non-heme iron content of the spleen and kidneys ([4]; sham, untreated and hepcidin injected HAMP-/- mice after IRI (data not shown)): could not detect quantitative differences
- splenic H-Ferritin (C57BL/6 mice [5]): increased splenic H-Ferritin levels
- splenic H-Ferritin (C57BL/6 mice [5]; listed as hepcidin): significantly higher H-Ferritin compared to both untreated IRI mice and sham controls
- splenic ferroportin expression (C57BL/6 mice [5]; hepcidin treatment, renal IRI, FIG. 9a bottom panel): dramatic decrease in surface expression of ferroportin; also recorded: degradation of ferroportin
- serum IL-6 levels [6]: prevented IRI-induced increase in IL-6 levels; also recorded: significantly reduced serum IL6 compared to untreated
